For 22 compounds, IC50 results are on record in patent publication US10316017B2, “COT modulators and methods of use thereof” (Gilead Sciences, Inc., priority 2015, dated 2019).

Structures are written as SMILES.

T1 sequence (P41279 30-397): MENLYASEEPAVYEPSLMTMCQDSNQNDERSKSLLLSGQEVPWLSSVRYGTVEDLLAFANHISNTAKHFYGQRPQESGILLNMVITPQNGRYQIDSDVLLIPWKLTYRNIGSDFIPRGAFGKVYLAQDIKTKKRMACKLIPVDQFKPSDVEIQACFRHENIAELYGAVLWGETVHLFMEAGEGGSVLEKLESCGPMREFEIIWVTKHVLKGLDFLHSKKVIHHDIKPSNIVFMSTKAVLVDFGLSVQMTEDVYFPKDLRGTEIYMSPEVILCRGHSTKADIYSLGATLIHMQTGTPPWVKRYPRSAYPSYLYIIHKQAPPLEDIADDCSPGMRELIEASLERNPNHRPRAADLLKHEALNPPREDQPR

This assay has as its target T1, human Cot catalytic domain (30-397 amino acids) (Homo sapiens, UniProt P41279).
T1 construct: Purified recombinant human Cot catalytic domain (30-397 amino acids) was purchased from Cama Biosciences; purchased Cama Biosciences (so in the source)
Put plainly: High Throughput Cot Biochemical Assay (KinEASE TR-FRET). The following applies: Cot KinEASE TR-FRET, 400 μM ATP; read-out: IC50 HTRF. In short, it runs like this:
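Phosphorylation of 1 μM XL665-STK3 peptide by 5 nM Cot catalytic domain was measured by time-resolved FRET using a europium […] antibody. ATP was 400 μM; buffer was 10 mM MOPS pH 7.0 with Mg2+ and DTT.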
As for `N#Cc1cnc2c(Cl)cc(NC(c3ccc(OC(F)(F)F)cc3)c3cn(C4CCNCC4)nn3)cc2c1Nc1ccc(F)c(Cl)c1` (stereo not shown) [Example 897, 8-chloro-4-((3-chloro-4-fluorophenyl)amino)-6-(((1-(piperidin-4-yl)-1H-1,2,3-triazol-4-yl)(4-(trifluoromethoxy)phenyl)methyl)amino)quinoline-3-carbonitrile], the IC50 was 59 nM.

As for `CCN1CCC(n2cc(C(Nc3cc(Cl)c4ncc(C#N)c(Nc5ccc(F)c(Cl)c5)c4c3)c3ccc(OC(F)(F)F)cc3)nn2)CC1` (stereo not shown) [Example 898, 8-chloro-4-((3-chloro-4-fluorophenyl)amino)-6-(((1-(1-ethylpiperidin-4-yl)-1H-1,2,3-triazol-4-yl)(4-(trifluoromethoxy)phenyl)methyl)amino)quinoline-3-carbonitrile], the IC50 stood at 40 nM.

In the case of `N#Cc1cnc2c(Cl)cc(NC(c3ccc(F)c(F)c3)c3cn(C4CCN(C(=O)OCc5ccccc5)CC4)nn3)cc2c1Nc1ccc(F)c(Cl)c1` (stereo not shown) [Example 899, benzyl 4-(4-(((8-chloro-4-((3-chloro-4-fluorophenyl)amino)-3-cyanoquinolin-6-yl)amino)(3,4-difluorophenyl)methyl)-1H-1,2,3-triazol-1-yl)piperidine-1-carboxylate], the IC50 was over 1000 nM.

For the compound `N#Cc1cnc2c(Cl)cc(NC(c3ccc(F)c(F)c3)c3cn(C4CCNCC4)nn3)cc2c1Nc1ccc(F)c(Cl)c1` (stereo not shown) [Example 900, 8-chloro-4-((3-chloro-4-fluorophenyl)amino)-6-(((3,4-difluorophenyl)(1-(piperidin-4-yl)-1H-1,2,3-triazol-4-yl)methyl)amino)quinoline-3-carbonitrile], the IC50 was 14 nM.

Regarding `CCN1CCC(n2cc(C(Nc3cc(Cl)c4ncc(C#N)c(Nc5ccc(F)c(Cl)c5)c4c3)c3ccc(F)c(F)c3)nn2)CC1` (stereo not shown) [Example 901, 8-chloro-4-((3-chloro-4-fluorophenyl)amino)-6-(((3,4-difluorophenyl)(1-(1-ethylpiperidin-4-yl)-1H-1,2,3-triazol-4-yl)methyl)amino)quinoline-3-carbonitrile], the IC50 is 11 nM.

For `COc1cccc(C(Nc2cc(Cl)c3ncc(C#N)c(Nc4ccc(F)c(Cl)c4)c3c2)c2cn(C3CCN(C(=O)OCc4ccccc4)CC3)nn2)c1` (stereo not shown) [Example 902, benzyl 4-(4-(((8-chloro-4-((3-chloro-4-fluorophenyl)amino)-3-cyanoquinolin-6-yl)amino)(3-methoxyphenyl)methyl)-1H-1,2,3-triazol-1-yl)piperidine-1-carboxylate], the IC50 is over 1000 nM.

For the compound `COc1cccc(C(Nc2cc(Cl)c3ncc(C#N)c(Nc4ccc(F)c(Cl)c4)c3c2)c2cn(C3CCNCC3)nn2)c1` (stereo not shown) [Example 903, 8-chloro-4-((3-chloro-4-fluorophenyl)amino)-6-(((3-methoxyphenyl)(1-(piperidin-4-yl)-1H-1,2,3-triazol-4-yl)methyl)amino)quinoline-3-carbonitrile], the IC50 was 7 nM.

Consider `CCN1CCC(n2cc(C(Nc3cc(Cl)c4ncc(C#N)c(Nc5ccc(F)c(Cl)c5)c4c3)c3cccc(OC)c3)nn2)CC1` (stereo not shown) [Example 904, 8-chloro-4-((3-chloro-4-fluorophenyl)amino)-6-(((1-(1-ethylpiperidin-4-yl)-1H-1,2,3-triazol-4-yl)(3-methoxyphenyl)methyl)amino) quinoline-3-carbonitrile], for which the IC50 amounted to 5 nM.

On to `N#Cc1cnc2c(Cl)cc(NC(c3cccc(F)c3)c3cn(C4CCN(C(=O)OCc5ccccc5)CC4)nn3)cc2c1Nc1ccc(F)c(Cl)c1` (stereo not shown) [Example 905, benzyl 4-(4-(((8-chloro-4-((3-chloro-4-fluorophenyl)amino)-3-cyanoquinolin-6-yl)amino)(3-fluorophenyl)methyl)-1H-1,2,3-triazol-1-yl)piperidine-1-carboxylate], for which the IC50 was over 1000 nM.

`N#Cc1cnc2c(Cl)cc(NC(c3cccc(F)c3)c3cn(C4CCNCC4)nn3)cc2c1Nc1ccc(F)c(Cl)c1` (stereo not shown) [Example 906, 8-chloro-4-((3-chloro-4-fluorophenyl)amino)-6-(((3-fluorophenyl)(1-(piperidin-4-yl)-1H-1,2,3-triazol-4-yl)methyl)amino)quinoline-3-carbonitrile]: the IC50 stood at 8 nM.

For `CCN1CCC(n2cc(C(Nc3cc(Cl)c4ncc(C#N)c(Nc5ccc(F)c(Cl)c5)c4c3)c3ccc(F)cc3)nn2)CC1` (stereo not shown) [Example 908, 8-chloro-4-((3-chloro-4-fluorophenyl)amino)-6-(((1-(1-ethylpiperidin-4-yl)-1H-1,2,3-triazol-4-yl)(4-fluorophenyl)methyl)amino) quinoline-3-carbonitrile], the IC50 was 5 nM.

In the case of `N#Cc1cnc2c(Cl)cc(NC(c3ccc(Cl)c(Cl)c3)c3cn(C4CCN(C(=O)OCc5ccccc5)CC4)nn3)cc2c1Nc1ccc(F)c(Cl)c1` (stereo not shown) [Example 909, benzyl 4-(4-(((8-chloro-4-((3-chloro-4-fluorophenyl)amino)-3-cyanoquinolin-6-yl)amino)(3,4-dichlorophenyl)methyl)-1H-1,2,3-triazol-1-yl)piperidine-1-carboxylate], the IC50 was over 1000 nM.

Regarding `N#Cc1cnc2c(Cl)cc(NC(c3ccc(Cl)c(Cl)c3)c3cn(C4CCNCC4)nn3)cc2c1Nc1ccc(F)c(Cl)c1` (stereo not shown) [Example 910, 8-chloro-4-((3-chloro-4-fluorophenyl)amino)-6-(((3,4-dichlorophenyl)(1-(piperidin-4-yl)-1H-1,2,3-triazol-4-yl)methyl)amino)quinoline-3-carbonitrile], the IC50 was 52 nM.

As to `CCN1CCC(n2cc(C(Nc3cc(Cl)c4ncc(C#N)c(Nc5ccc(F)c(Cl)c5)c4c3)c3ccc(Cl)c(Cl)c3)nn2)CC1` (stereo not shown) [Example 911, 8-chloro-4-((3-chloro-4-fluorophenyl)amino)-6-(((3,4-dichlorophenyl)(1-(1-ethylpiperidin-4-yl)-1H-1,2,3-triazol-4-yl)methyl)amino)quinoline-3-carbonitrile], the IC50 was found to be 36 nM.

On to `N#Cc1cnc2c(Cl)cc(NC(c3ccccc3)c3cn(CC(=O)O)nn3)cc2c1Nc1ccc(F)c(Cl)c1` (stereo not shown) [Example 912, 2-(4-(((8-chloro-4-((3-chloro-4-fluorophenyl)amino)-3-cyanoquinolin-6-yl)amino)(phenyl)methyl)-1H-1,2,3-triazol-1-yl)acetic acid], for which the IC50 worked out at 60 nM.

For `N#Cc1cnc2c(Cl)cc(NC(c3ccc(Cl)cc3)c3cn(C4CCN(C(=O)OCc5ccccc5)CC4)nn3)cc2c1Nc1ccc(F)c(Cl)c1` (stereo not shown) [Example 913, benzyl 4-(4-(((8-chloro-4-((3-chloro-4-fluorophenyl)amino)-3-cyanoquinolin-6-yl)amino)(4-chlorophenyl)methyl)-1H-1,2,3-triazol-1-yl)piperidine-1-carboxylate], the IC50 was over 1000 nM.

Consider `N#Cc1cnc2c(Cl)cc(NC(c3ccc(Cl)cc3)c3cn(C4CCNCC4)nn3)cc2c1Nc1ccc(F)c(Cl)c1` (stereo not shown) [Example 914, 8-chloro-4-((3-chloro-4-fluorophenyl)amino)-6-(((4-chlorophenyl)(1-(piperidin-4-yl)-1H-1,2,3-triazol-4-yl)methyl)amino)quinoline-3-carbonitrile], for which the IC50 came out at 23 nM.

For `Cc1ccc(C(Nc2cc(Cl)c3ncc(C#N)c(Nc4ccc(F)c(Cl)c4)c3c2)c2cn(C3CCN(C(=O)OCc4ccccc4)CC3)nn2)cc1` (stereo not shown) [Example 915, benzyl 4-(4-(((8-chloro-4-((3-chloro-4-fluorophenyl)amino)-3-cyanoquinolin-6-yl)aminoXp-tolyl)methyl)-1H-1,2,3-triazol-1-yl)piperidine-1-carboxylate], the IC50 is over 1000 nM.

Take `Cc1ccc(C(Nc2cc(Cl)c3ncc(C#N)c(Nc4ccc(F)c(Cl)c4)c3c2)c2cn(C3CCNCC3)nn2)cc1` (stereo not shown) [Example 916, 8-chloro-4-((3-chloro-4-fluorophenyl)amino)-6-(((1-(piperidin-4-yl)-1H-1,2,3-triazol-4-yl)(p-tolyl)methyl)amino) quinoline-3-carbonitrile]: the IC50 is 48 nM.

Turning to `CCN1CCC(n2cc(C(Nc3cc(Cl)c4ncc(C#N)c(Nc5ccc(F)c(Cl)c5)c4c3)c3ccc(C)cc3)nn2)CC1` (stereo not shown) [Example 917, 8-chloro-4-((3-chloro-4-fluorophenyl)amino)-6-(((1-(1-ethylpiperidin-4-yl)-1H-1,2,3-triazol-4-yl)(p-tolyl)methyl)amino)quinoline-3-carbonitrile], the IC50 is 23 nM.

Turning to `N#Cc1cnc2c(Cl)cc(NC(c3ccccc3)c3cn(C4CCNCC4)nn3)cc2c1Nc1ccc(F)c(Cl)c1` (stereo not shown) [Example 921, 8-chloro-4-((3-chloro-4-fluorophenyl)amino)-6-((phenyl (1-(piperidin-4-yl)-1H-1,2,3-triazol-4-yl)methyl)amino)quinoline-3-carbonitrile], the IC50 came to 8 nM.

For the compound `CCN1CCC(n2cc(C(Nc3cc(Cl)c4ncc(C#N)c(Nc5ccc(F)c(Cl)c5)c4c3)c3ccccc3)nn2)CC1` (stereo not shown) [Example 922, 8-chloro-4-((3-chloro-4-fluorophenyl)amino)-6-(((1-(1-ethylpiperidin-4-yl)-1H-1,2,3-triazol-4-yl)(phenyl)methyl)amino) quinoline-3-carbonitrile], the IC50 was 4 nM.
